Source: patent publication US20230193265A1, “CUG REPEAT SEQUENCE BINDING AGENT” (OSAKA UNIVERSITY, priority 2020, published 2023)

Tests used:
r(CUG)9 = assay: Surface plasmon resonance (SPR) binding to immobilized r(CUG)9 RNA
Procedure: A streptavidin-coated sensor chip (SA chip, GE Healthcare) was washed with HBS-EP^+ buffer (10 mM HEPES, pH 7.4, 0.15 M NaCl, 3 mM EDTA and 0.05% v/v Surfactant P20) for 6 minutes, and then activated with three consecutive 1-min injection of 30 μL of activation buffer (50 mM NaOH and 1 M NaCl).
5′-Biotinylated r(CUG)9 (Thermo Fisher Scientific Inc.) was diluted to 0.1 μM with HEPES buffer (10 mM HEPES and 500 mM NaCl) and flowed onto the sensor chip until immobilized response units (RU) reaching around 400 RU. The amount of r(CUG)9 immobilized on the surface of the sensor chip was at 401 RU.
Surface plasmon resonance was measured using BIAcore T200 SPR system (GE Healthcare).
r(CUG)9 used for the SPR assay has the sequence as shown below.
For single-cycle kinetic (SCK) analysis, the surface of the sensor chip was conditioned by 120 sec exposure of continuous flow of HBS-EP^+ buffer at a flow rate of 30 μL/min at 25° C. Compound JM608 was dissolved in HBS-EP^+ buffer at a concentration of 0.063 μM, 0.125 μM, 0.25 μM, 0.50 μM and 1.0 μM, and the resulting solutions were sequentially injected on the sensor surface for 60 seconds each at a flow rate of 30 μL/min per cycle.
The obtained SPR response curves were analyzed using BIAcore T200 evaluation software (version 2.0).
SPR measurement was performed in the same manner as in Example 1 except that compound JM642 was used in place of compound JM608 and that solutions of compound JM642 at concentrations of 6 nM, 13 nM, 25 nM, 50 nM and 100 nM were sequentially injected.
The resonance unit for the compound at a concentration of 25 nM in Example 1 was calculated from the measured value (1.9 RU) for the compound at 63 nM using the formula: 1.9 RU×(25 nM/63 nM).

[1] = system: Atp2a1 (sarcoplasmic reticulum Ca2+/ATPase gene) Exon 22 splicing; assay: Improvement of Atp2a1 splicing abnormality in DM1 mouse model; format: in vivo, homozygous HSA^LR transgenic mice; conditions: 20 mg/kg/day, daily intraperitoneal administration for five days; rectus femoris (quadriceps)
Procedure: (§1) Gender- and age-matched homozygous HSA^LR transgenic mice of line 20b (FVB inbred background) (Science 2000, 289, 1769-1772) (<3 months old) were treated with JM642 at indicated doses (10 mg/kg/day and 20 mg/kg/day) for five days by daily intraperitoneal administration. After treatments, the rectus femoris (quadriceps) were obtained for splicing analysis. Total RNA extraction from the tissue, cDNA synthesis and polymerase chain reaction (PCR) were carried out according to Ann. Clin. Transl. Neurol. 2016, 3, 42-54. The PCR products were separated by agarose gel electrophoresis, and the gel was stained with GelRed (Biotium). The gel was imaged using a Typhoon laser fluorimager (GE Healthcare) and the gel bands were quantified using ImageQuant (GE Healthcare).
(§2) For normal mice and mice treated in the same manner as above except that JM642 was not administered, total RNA extraction, cDNA synthesis, PCR and electrophoresis of the PCR products were performed in the same manner as above.
Evaluation was performed in the same manner as in Example 3 except that the compound (DDAP) shown below synthesized in accordance with the method described in non-patent literature 3 was used in place of compound JM642.

[2] = system: Clcn1 (muscle-specific chloride channel gene) Exon 7a splicing; assay: Improvement of Clcn1 splicing abnormality in DM1 mouse model; format: in vivo, homozygous HSA^LR transgenic mice; conditions: 20 mg/kg/day, daily intraperitoneal administration for five days; rectus femoris (quadriceps)
Procedure: as §1, §2
Evaluation was performed in the same manner as in Example 3 except that Clcn1 was studied in place of Atp2a1.
Evaluation was performed in the same manner as in Example 4 except that the compound (DDAP) shown above synthesized in accordance with the method described in non-patent literature 3 was used in place of compound JM642.

| Resonance unit (RU) at concentration of 25 nM (r(CUG)9; 25 nM compound, r(CUG)9 immobilized at 401 RU, calculated from measured value at 63 nM: 1.9 RU×(25 nM/63 nM)) | Resonance unit, measured value at 63 nM (r(CUG)9; 63 nM compound, r(CUG)9 immobilized at 401 RU) | binding capacity to the CUG repeat sequence (r(CUG)9; SPR, FIGS. 1 and 2 and Table 2) | SMILES | inclusion rate of Exon 22 [1] | skipping rate of Exon 7a [2] |
| --- | --- | --- | --- | --- | --- |
| 0.8 RU | 1.9 RU | observed | NCCCNc1nc(NC(=O)OCCCN)cc2c(-c3ccnc(N4CCNCC4)c3)cccc12 [JM608, 3-aminopropyl (1-((3-aminopropyl)amino)-5-(2-(piperazin-1-yl)pyridin-4-yl)isoquinolin-3-yl)carbamate] |  |  |
|  |  |  | NCCCNc1nc(NC(=O)OCCCNC(=O)CCNCCC(=O)NCCCOC(=O)Nc2cc3c(-c4ccnc(N5CCNCC5)c4)cccc3c(NCCCN)n2)cc2c(-c3ccnc(N4CCNCC4)c3)cccc12 [JM642, ((3,3′-azanediylbis(propanoyl))bis(azanediyl))bis(propane-3,1-diyl)bis((1-((3-aminopropyl)amino)-5-(2-(piperazin-1-yl)pyridin-4-yl)isoquinolin-3-yl)carbamate)] | 70% | 70% |
